The text below walks through data of ChEMBL document CHEMBL5236588 (J Med Chem, 2022).

Residues, ends and D or L forms follow the SMILES beside them.

Series [1] is described as follows: Inhibition of human FXIIa.
Series [2] can be described thus: Inhibition of FXIIa (unknown origin) using Ac-QRFR-pNA as substrate measured at 30 sec interval by microplate reader assay. Further details: species or system Homo sapiens.
Series [3] can be described thus: Stability of compound in human serum at 50 uM incubated for 24 hrs by reversed phase HPLC analysis. In kind it is ADME, cell-free.
The target in series [4] is T1, Suppressor of tumorigenicity 14 protein (Homo sapiens, UniProt Q9Y5Y6).
T1 sequence (Q9Y5Y6 whole entry): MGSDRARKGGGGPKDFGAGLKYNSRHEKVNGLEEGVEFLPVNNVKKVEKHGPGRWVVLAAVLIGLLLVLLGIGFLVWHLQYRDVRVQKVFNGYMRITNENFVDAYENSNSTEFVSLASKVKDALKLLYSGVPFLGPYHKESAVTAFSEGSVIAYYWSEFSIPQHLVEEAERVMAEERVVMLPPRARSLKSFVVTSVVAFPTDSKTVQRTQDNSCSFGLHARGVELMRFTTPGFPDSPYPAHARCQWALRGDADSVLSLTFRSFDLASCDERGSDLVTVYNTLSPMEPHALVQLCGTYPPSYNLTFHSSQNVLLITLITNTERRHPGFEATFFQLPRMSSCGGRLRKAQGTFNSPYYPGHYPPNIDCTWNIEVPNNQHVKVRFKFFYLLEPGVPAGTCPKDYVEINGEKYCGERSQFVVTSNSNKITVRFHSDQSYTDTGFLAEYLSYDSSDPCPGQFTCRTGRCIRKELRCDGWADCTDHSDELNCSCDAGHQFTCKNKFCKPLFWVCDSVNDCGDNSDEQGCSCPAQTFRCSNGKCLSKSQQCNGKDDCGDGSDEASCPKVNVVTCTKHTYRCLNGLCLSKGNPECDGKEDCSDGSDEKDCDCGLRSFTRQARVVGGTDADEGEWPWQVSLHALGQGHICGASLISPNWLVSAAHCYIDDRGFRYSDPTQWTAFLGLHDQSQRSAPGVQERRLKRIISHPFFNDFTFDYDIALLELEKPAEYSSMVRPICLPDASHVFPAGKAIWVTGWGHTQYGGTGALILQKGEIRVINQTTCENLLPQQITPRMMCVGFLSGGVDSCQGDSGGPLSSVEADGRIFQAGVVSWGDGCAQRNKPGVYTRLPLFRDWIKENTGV
The experiment in a line: Inhibition of recombinant human matriptase using Boc-QAR-MCA as substrate.

Series [5] can be described thus: Inhibition of human beta-FIXa using Boc-QGR-MCA as substrate.
The next series has as its target Plasma kallikrein (Homo sapiens, UniProt P03952). Briefly: Inhibition of human plasma kallikrein using Z-FR-MCA as substrate. In kind it is cell-free.
For a further series, the target named is Plasminogen (Homo sapiens, UniProt P00747). The experiment in a line: Inhibition of human plasmin using Ac-RM(O2)YR-pNA as substrate.
Plasminogen, sequence (P00747 97-580 limits assumed): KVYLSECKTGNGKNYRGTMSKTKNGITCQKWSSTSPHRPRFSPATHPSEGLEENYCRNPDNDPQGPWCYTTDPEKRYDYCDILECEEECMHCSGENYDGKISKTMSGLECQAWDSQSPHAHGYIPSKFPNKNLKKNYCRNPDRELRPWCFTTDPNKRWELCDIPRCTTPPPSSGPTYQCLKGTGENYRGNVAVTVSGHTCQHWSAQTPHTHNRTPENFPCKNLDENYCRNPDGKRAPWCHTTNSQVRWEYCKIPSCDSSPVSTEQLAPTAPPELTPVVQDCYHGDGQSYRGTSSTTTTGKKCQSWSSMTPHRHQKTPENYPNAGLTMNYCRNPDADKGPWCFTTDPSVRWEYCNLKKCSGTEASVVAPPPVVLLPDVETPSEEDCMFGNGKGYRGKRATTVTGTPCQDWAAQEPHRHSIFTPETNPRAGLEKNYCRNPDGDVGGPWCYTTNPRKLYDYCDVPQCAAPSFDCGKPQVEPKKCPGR
Plasminogen, sequence (P00747 581-810 limits assumed): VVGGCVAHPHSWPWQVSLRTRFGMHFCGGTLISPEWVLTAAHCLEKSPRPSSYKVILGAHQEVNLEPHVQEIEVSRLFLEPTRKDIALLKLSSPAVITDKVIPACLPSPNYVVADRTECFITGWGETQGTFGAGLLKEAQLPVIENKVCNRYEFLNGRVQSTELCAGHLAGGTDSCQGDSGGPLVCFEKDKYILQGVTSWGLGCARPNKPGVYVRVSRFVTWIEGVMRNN
The nature of series [6]: Inhibition of human FXIa using Boc-Glu(OBzl)-AR-MCA as substrate.
A short description of series [7]: Inhibition of human FXa using Z-Pyr-GR-MCA as substrate.
A short description of series [8]: Stability of compound in human serum at 50 uM incubated for 8 hrs by reversed phase HPLC analysis. The settings on record: read-out: Stability. It is filed as ADME, cell-free.
The nature of series [9]: Inhibition of human cationic trypsin using Boc-VPR-MCA as susbtrate.
For the next series, the species on record is Homo sapiens. Briefly: Anticoagulant activity in human plasma assessed as prolongation of activated partial thromboplastin time by measuring concentration required to double aPTT. It is filed as functional.

Plasma kallikrein, sequence (P03952 20-390 limits assumed): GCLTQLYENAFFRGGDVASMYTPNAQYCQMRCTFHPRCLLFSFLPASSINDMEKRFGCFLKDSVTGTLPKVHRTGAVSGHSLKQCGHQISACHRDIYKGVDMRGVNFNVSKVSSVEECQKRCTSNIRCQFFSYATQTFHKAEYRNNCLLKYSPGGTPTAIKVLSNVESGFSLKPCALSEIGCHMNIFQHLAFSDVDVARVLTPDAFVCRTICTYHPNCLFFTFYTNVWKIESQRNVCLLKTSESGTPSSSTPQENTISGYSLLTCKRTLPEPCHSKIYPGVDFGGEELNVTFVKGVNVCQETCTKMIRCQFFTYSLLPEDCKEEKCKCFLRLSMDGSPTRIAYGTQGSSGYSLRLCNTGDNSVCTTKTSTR
Plasma kallikrein, sequence (P03952 391-638 limits assumed): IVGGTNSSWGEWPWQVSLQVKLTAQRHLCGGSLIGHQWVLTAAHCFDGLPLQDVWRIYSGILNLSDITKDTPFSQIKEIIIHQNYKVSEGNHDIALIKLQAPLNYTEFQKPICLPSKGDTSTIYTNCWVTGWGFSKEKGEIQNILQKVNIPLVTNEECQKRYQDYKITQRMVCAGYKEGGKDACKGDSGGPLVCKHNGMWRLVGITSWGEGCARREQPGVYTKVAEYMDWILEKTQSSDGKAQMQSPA

`CC(C)C[C@@H]1NC(=O)[C@H](CCC(N)=O)NC(=O)[C@H](Cc2c[nH]cn2)NC(=O)[C@@H]2CSCCC(=O)N3CN(CN(C3)C(=O)CCSC[C@H](NC(=O)[C@@H](CO)NC(=O)[C@H](N)CCCNC(=N)N)C(=O)N[C@@H](Cc3ccc(F)cc3)C(=O)N[C@@H](CCCNC(=N)N)C(=O)N[C@@H](CC(C)C)C(=O)N3CCC[C@H]3C(=O)N2)C(=O)CCSC[C@@H](C(=O)O)NC(=O)C[C@H](CCCNC(=N)N)NC1=O` gave a Ki in series [1] of 0.37 nM.
Turning to `CC[C@H](C)[C@@H]1NC(=O)[C@@H]2CSSC[C@@H]3NC(=O)[C@H](CCC(N)=O)NC(=O)CNC(=O)CNC(=O)[C@H](CC(=O)O)NC(=O)[C@H](CO)NC(=O)CNC(=O)[C@H](CO)NC(=O)CNC(=O)[C@@H]4CSSC[C@H](NC(=O)[C@H](CC(=O)O)NC(=O)[C@H](CO)NC(=O)[C@H](CC(=O)O)NC(=O)[C@H](CCCNC(=N)N)NC(=O)[C@H](CCCNC(=N)N)NC(=O)[C@H](CSSC[C@H](NC1=O)C(=O)N[C@@H](CCCNC(=N)N)C(=O)NCC(=O)N[C@@H](CC(N)=O)C(=O)NCC(=O)N[C@@H](Cc1ccc(O)cc1)C(=O)N4)NC(=O)[C@H](CCCCN)NC(=O)[C@H](CCCCN)NC(=O)[C@H](CC(C)C)NC(=O)[C@H]([C@@H](C)CC)NC(=O)[C@H](CCCNC(=N)N)NC(=O)[C@H](Cc1ccccc1)NC3=O)C(=O)N1CCC[C@H]1C(=O)NCC(=O)N[C@@H](C)C(=O)N2` (HELM PEPTIDE1{A.C.I.C.R.G.N.G.Y.C.G.S.G.S.D.G.G.Q.C.F.R.I.L.K.K.C.R.R.D.S.D.C.P.G}$PEPTIDE1,PEPTIDE1,2:R3-19:R3|PEPTIDE1,PEPTIDE1,4:R3-26:R3|PEPTIDE1,PEPTIDE1,10:R3-32:R3|PEPTIDE1,PEPTIDE1,1:R1-34:R2$$$V2.0), the Ki in series [2] is 193 nM. The Stability entry in series [3] is reported as “Stable”.
For `CC[C@H](C)[C@@H]1NC(=O)[C@H](CCCNC(=N)N)NC(=O)[C@H](Cc2ccccc2)NC(=O)[C@@H](NC(=O)[C@H](CCCNC(=N)N)NC(=O)CNC(=O)CN)CSSC[C@@H]2NC(=O)[C@H](C)NC(=O)CNC(=O)[C@@H]3CCCN3C(=O)[C@@H]3CSSC[C@@H](C(=O)NCC(=O)N[C@@H](CO)C(=O)O)NC(=O)[C@H](Cc4ccc(O)cc4)NC(=O)CNC(=O)[C@H](CC(N)=O)NC(=O)CNC(=O)[C@H](CCCNC(=N)N)NC(=O)[C@H](CSSC[C@H](NC(=O)[C@H](CCCCN)NC(=O)[C@H](CCCCN)NC(=O)CNC1=O)C(=O)N[C@@H](CCCNC(=N)N)C(=O)N[C@@H](CCCNC(=N)N)C(=O)N[C@@H](CC(=O)O)C(=O)N[C@@H](CO)C(=O)N[C@@H](CC(=O)O)C(=O)N3)NC(=O)[C@H]([C@@H](C)CC)NC2=O` (HELM PEPTIDE1{G.G.R.C.F.R.I.G.K.K.C.R.R.D.S.D.C.P.G.A.C.I.C.R.G.N.G.Y.C.G.S}$PEPTIDE1,PEPTIDE1,4:R3-21:R3|PEPTIDE1,PEPTIDE1,11:R3-23:R3|PEPTIDE1,PEPTIDE1,17:R3-29:R3$$$V2.0) [listing 1 of 2 here], the values for the Ki in [2] and in [4] were 2 nM and 1430 nM, respectively. Also, the IC50 (in series [5]; against Plasma kallikrein; on Plasminogen; in series [6]; in series [7]; in series [9]) was over 5000 nM in each case. Besides, the Stability entry in series [3] was “Stable”. Moreover, the remaining at 8 h, 50 µM in series [8] was found to be 100%.
Take `CC[C@H](C)[C@@H]1NC(=O)[C@H](CCCNC(=N)N)NC(=O)[C@H](Cc2ccccc2)NC(=O)[C@@H](NC(=O)[C@H](CCCNC(=N)N)NC(=O)CNC(=O)CN)CSSC[C@@H]2NC(=O)[C@H](C)NC(=O)CNC(=O)[C@@H]3CCCN3C(=O)[C@@H]3CSSC[C@@H](C(=O)NCC(=O)N[C@@H](CO)C(=O)O)NC(=O)[C@H](Cc4ccc(O)cc4)NC(=O)CNC(=O)[C@H](CC(N)=O)NC(=O)CNC(=O)[C@H](CCCNC(=N)N)NC(=O)[C@H](CSSC[C@H](NC(=O)[C@H](CCCCN)NC(=O)[C@H](CCCCN)NC(=O)CNC1=O)C(=O)N[C@@H](CCCNC(=N)N)C(=O)N[C@@H](CCCNC(=N)N)C(=O)N[C@@H](CC(=O)O)C(=O)N[C@@H](CO)C(=O)N[C@@H](CC(=O)O)C(=O)N3)NC(=O)[C@H]([C@@H](C)CC)NC2=O` (HELM PEPTIDE1{G.G.R.C.F.R.I.G.K.K.C.R.R.D.S.D.C.P.G.A.C.I.C.R.G.N.G.Y.C.G.S}$PEPTIDE1,PEPTIDE1,4:R3-21:R3|PEPTIDE1,PEPTIDE1,11:R3-23:R3|PEPTIDE1,PEPTIDE1,17:R3-29:R3$$$V2.0) [listing 2 of 2 here]: the Activity in the series filed under Homo sapiens was found to be 2.5 µM.
For `CC[C@H](C)[C@@H]1NC(=O)[C@@H]2CSSC[C@H](NC(=O)[C@H](CCCNC(=N)N)NC(=O)CNC(=O)CN)C(=O)N[C@@H](Cc3ccccc3)C(=O)N[C@@H](CCCNC(=N)N)C(=O)N[C@@H]([C@@H](C)CC)C(=O)N[C@@H](CC(C)C)C(=O)N[C@@H](CCCCN)C(=O)N[C@@H](CCCCN)C(=O)N[C@H]3CSSC[C@H](NC1=O)C(=O)N[C@@H](CCCNC(=N)N)C(=O)NCC(=O)N[C@@H](CC(N)=O)C(=O)NCC(=O)N[C@@H](Cc1ccc(O)cc1)C(=O)N[C@H](C(=O)NCC(=O)N[C@@H](CO)C(=O)O)CSSC[C@H](NC(=O)[C@H](CC(=O)O)NC(=O)[C@H](CO)NC(=O)[C@H](CC(=O)O)NC(=O)[C@H](CCCNC(=N)N)NC(=O)[C@H](CCCNC(=N)N)NC3=O)C(=O)N1CCC[C@H]1C(=O)NCC(=O)N[C@@H](C)C(=O)N2` (HELM PEPTIDE1{G.G.R.C.F.R.I.L.K.K.C.R.R.D.S.D.C.P.G.A.C.I.C.R.G.N.G.Y.C.G.S}$PEPTIDE1,PEPTIDE1,4:R3-21:R3|PEPTIDE1,PEPTIDE1,11:R3-23:R3|PEPTIDE1,PEPTIDE1,17:R3-29:R3$$$V2.0), the Ki in [2] was 3 nM; in series [4] it was 30 nM; at Plasminogen, 86 nM; in series [9], 275 nM. Besides, the IC50 (in series [5]; at Plasma kallikrein; in [6]; in series [7]) was over 5000 nM throughout.
